Where “and” joins values, the source holds several entries; their conditions need not be identical. Equal values may be shown once. Toxic doses and inconclusive results are not listed.
Tested on: L1210 leukemia ip in BDF1 mice, survival T/C
Test: NCI In Vivo Anticancer Drug Screen. Data for tumor model L1210 Leukemia (intraperitoneal) in B6D2F1 (BDF1) mice
Conditions: higher = longer survival
Method in brief: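 Mice bearing the transplanted tumor received compound or vehicle. Survival of the treated group was divided by that of the vehicle-treated control group to give the ratio.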

[1] = endpoint: mean survival time, dose: 100.0 mg/kg/injection, schedule: Q04DX002 (ip), vehicle: saline with Tween-80
[2] = endpoint: mean survival time, dose: 200.0 mg/kg/injection, schedule: Q04DX002 (ip), vehicle: saline with Tween-80
[3] = endpoint: mean survival time, dose: 100.0 mg/kg/injection, schedule: Q01DX009 (ip), vehicle: Klucel (hydroxypropylcellulose) (HPC)
[4] = endpoint: mean survival time, dose: 200.0 mg/kg/injection, schedule: Q01DX009 (ip), vehicle: Klucel (hydroxypropylcellulose) (HPC)
[5] = endpoint: mean survival time, dose: 400.0 mg/kg/injection, schedule: Q01DX009 (ip), vehicle: Klucel (hydroxypropylcellulose) (HPC)
[6] = endpoint: mean survival time, dose: 100.0 mg/kg/injection, schedule: Q01DX001 (ip), vehicle: carboxymethylcellulose (CMC)
[7] = endpoint: mean survival time, dose: 200.0 mg/kg/injection, schedule: Q01DX001 (ip), vehicle: carboxymethylcellulose (CMC)
[8] = endpoint: mean survival time, dose: 100.0 mg/kg/injection, schedule: Q04DX003 (ip), vehicle: saline
[9] = endpoint: mean survival time, dose: 200.0 mg/kg/injection, schedule: Q04DX003 (ip), vehicle: saline
[10] = endpoint: mean survival time, dose: 25.0 mg/kg/injection, schedule: Q01DX009 (ip), vehicle: Klucel (hydroxypropylcellulose) (HPC)
[11] = endpoint: mean survival time, dose: 50.0 mg/kg/injection, schedule: Q01DX009 (ip), vehicle: Klucel (hydroxypropylcellulose) (HPC)
[12] = endpoint: mean survival time, dose: 100.0 mg/kg/injection, schedule: Q04DX003 (ip), vehicle: Klucel (hydroxypropylcellulose) (HPC)
[13] = endpoint: mean survival time, dose: 200.0 mg/kg/injection, schedule: Q04DX003 (ip), vehicle: Klucel (hydroxypropylcellulose) (HPC)
[14] = endpoint: mean survival time, dose: 400.0 mg/kg/injection, schedule: Q04DX002 (ip), vehicle: saline with Tween-80
[15] = endpoint: mean survival time, dose: 400.0 mg/kg/injection, schedule: Q04DX003 (ip), vehicle: Klucel (hydroxypropylcellulose) (HPC)

Cc1c(C)c(C)c([N+](=O)[O-])c([N+](=O)[O-])c1C
T/C (endpoint: mean survival time, dose: 50.0 mg/kg/injection, schedule: Q01DX009 (ip), vehicle: saline with Tween-80): 112 % of control
T/C (endpoint: mean survival time, dose: 100.0 mg/kg/injection, schedule: Q01DX009 (ip), vehicle: saline with Tween-80): 93 % of control
T/C [1]: 97 % of control
T/C (endpoint: mean survival time, dose: 200.0 mg/kg/injection, schedule: Q01DX009 (ip), vehicle: saline with Tween-80): 93 % of control
T/C [2]: 114 % of control

CC(C)(C)C1([Si](C)(C)C)SCCCS1
T/C (endpoint: mean survival time, dose: 100.0 mg/kg/injection, schedule: Q04DX002 (ip), vehicle: other): 114 % of control
T/C (endpoint: mean survival time, dose: 200.0 mg/kg/injection, schedule: Q04DX002 (ip), vehicle: other): 108 % of control
T/C (endpoint: mean survival time, dose: 400.0 mg/kg/injection, schedule: Q04DX002 (ip), vehicle: other): 101 % of control

ClCc1nc2ccc(Cl)cc2[nH]1
T/C (endpoint: mean survival time, dose: 100.0 mg/kg/injection, schedule: Q01DX001 (ip), vehicle: other): 104 % of control
T/C (endpoint: mean survival time, dose: 200.0 mg/kg/injection, schedule: Q01DX001 (ip), vehicle: other): 106 % of control

CCN(c1ccccc1)c1ccc([N+](=O)[O-])c2no[n+]([O-])c12
T/C (endpoint: mean survival time, dose: 20.0 mg/kg/injection, schedule: Q04DX003 (ip), vehicle: saline with Tween-80): 100 % of control
T/C (endpoint: mean survival time, dose: 40.0 mg/kg/injection, schedule: Q04DX003 (ip), vehicle: saline with Tween-80): 96 % of control

Cc1ccc(NC(=O)C(Br)C(Br)c2ccccc2)cc1Cl (stereo not given)
T/C [3]: 96 % of control
T/C [4]: 92 % of control
T/C [5]: 88 % of control

O=NN(CCCl)C(=O)Nc1ccc(Cl)c(Cl)c1
T/C (endpoint: mean survival time, dose: 5.0 mg/kg/injection, schedule: Q01DX009 (ip), vehicle: carboxymethylcellulose (CMC)): 121 % of control
T/C (endpoint: mean survival time, dose: 8.0 mg/kg/injection, schedule: Q01DX009 (ip), vehicle: carboxymethylcellulose (CMC)): 114 % of control
T/C (endpoint: mean survival time, dose: 17.0 mg/kg/injection, schedule: Q01DX015 (ip), vehicle: carboxymethylcellulose (CMC)): 114 % of control
T/C (endpoint: mean survival time, dose: 26.0 mg/kg/injection, schedule: Q01DX015 (ip), vehicle: carboxymethylcellulose (CMC)): 163 % of control and 167 % of control
T/C (endpoint: mean survival time, dose: 39.0 mg/kg/injection, schedule: Q01DX015 (ip), vehicle: carboxymethylcellulose (CMC)): 119 % of control and 121 % of control
T/C (endpoint: mean survival time, dose: 58.0 mg/kg/injection, schedule: Q01DX015 (ip), vehicle: carboxymethylcellulose (CMC)): 117 % of control and 89 % of control
T/C [6]: 116 % of control
T/C [7]: 161 % of control
T/C (endpoint: mean survival time, dose: 300.0 mg/kg/injection, schedule: Q01DX001 (ip), vehicle: carboxymethylcellulose (CMC)): 89 % of control

CCN(CC)C(=S)S
T/C (endpoint: mean survival time, dose: 50.0 mg/kg/injection, schedule: Q04DX003 (ip), vehicle: saline): 101 % of control
T/C [6]: 106 % of control
T/C (endpoint: mean survival time, dose: 100.0 mg/kg/injection, schedule: Q01DX009 (ip), vehicle: other): 107 % of control
T/C [8]: 103 % of control
T/C (endpoint: mean survival time, dose: 125.0 mg/kg/injection, schedule: Q01DX010 (ip), vehicle: saline): 103 % of control and 90 % of control
T/C [7]: 96 % of control
T/C (endpoint: mean survival time, dose: 200.0 mg/kg/injection, schedule: Q01DX009 (ip), vehicle: other): 103 % of control
T/C [9]: 106 % of control
T/C (endpoint: mean survival time, dose: 250.0 mg/kg/injection, schedule: Q01DX010 (ip), vehicle: saline): 97 % of control and 87 % of control
T/C (endpoint: mean survival time, dose: 400.0 mg/kg/injection, schedule: Q01DX001 (ip), vehicle: carboxymethylcellulose (CMC)): 102 % of control
T/C (endpoint: mean survival time, dose: 400.0 mg/kg/injection, schedule: Q01DX009 (ip), vehicle: other): 102 % of control
T/C (endpoint: mean survival time, dose: 400.0 mg/kg/injection, schedule: Q04DX003 (ip), vehicle: saline): 103 % of control
T/C (endpoint: mean survival time, dose: 500.0 mg/kg/injection, schedule: Q01DX010 (ip), vehicle: saline): 100 % of control and 91 % of control
T/C (endpoint: mean survival time, dose: 1000.0 mg/kg/injection, schedule: Q01DX010 (ip), vehicle: saline): 114 % of control
T/C (endpoint: median survival time, dose: 500.0 mg/kg/injection, schedule: Q01DX001 (ip), vehicle: saline): 103 % of control
T/C (endpoint: median survival time, dose: 1000.0 mg/kg/injection, schedule: Q01DX001 (ip), vehicle: saline): 108 % of control

COc1ccc(OC)c(NC(=O)c2ccc(F)cc2)c1
T/C [3]: 98 % of control
T/C [4]: 107 % of control
T/C [5]: 96 % of control

NC(=S)N/N=C1\COC(C(F)(F)F)(C(F)(F)F)C1
T/C (endpoint: mean survival time, dose: 12.5 mg/kg/injection, schedule: Q01DX009 (ip), vehicle: Klucel (hydroxypropylcellulose) (HPC)): 100 % of control
T/C [10]: 97 % of control
T/C [11]: 96 % of control
T/C [3]: 97 % of control and 100 % of control
T/C [12]: 103 % of control
T/C [13]: 105 % of control

Cc1ccc[n+]([O-])c1Cl
T/C [8]: 100 % of control
T/C [9]: 87 % of control

NCCc1nc2ccccc2[nH]1
T/C (endpoint: mean survival time, dose: 15.0 mg/kg/injection, schedule: Q01DX Z (ip), vehicle: saline): 93 % of control
T/C (endpoint: mean survival time, dose: 30.0 mg/kg/injection, schedule: Q01DX Z (ip), vehicle: saline): 98 % of control
T/C (endpoint: mean survival time, dose: 60.0 mg/kg/injection, schedule: Q01DX Z (ip), vehicle: saline): 97 % of control
T/C (endpoint: mean survival time, dose: 120.0 mg/kg/injection, schedule: Q01DX Z (ip), vehicle: saline): 95 % of control
T/C (endpoint: mean survival time, dose: 240.0 mg/kg/injection, schedule: Q01DX Z (ip), vehicle: saline): 103 % of control
T/C (endpoint: mean survival time, dose: 480.0 mg/kg/injection, schedule: Q01DX Z (ip), vehicle: saline): 108 % of control

Clc1ccc(C(c2ccc(Cl)cc2)N2CCNCC2)cc1
T/C (endpoint: mean survival time, dose: 25.0 mg/kg/injection, schedule: Q01DX009 (ip), vehicle: saline with Tween-80): 98 % of control

CCCCOP(=O)(Cc1ccc(Cl)cc1Cl)OCCCC
T/C [1]: 109 % of control
T/C [2]: 109 % of control
T/C [14]: 98 % of control

CCOC(=O)NC(NC(=O)OCC)C(Cl)Cl
T/C (endpoint: mean survival time, dose: 100.0 mg/kg/injection, schedule: Q01DX001 (ip), vehicle: saline): 101 % of control
T/C (endpoint: mean survival time, dose: 200.0 mg/kg/injection, schedule: Q01DX001 (ip), vehicle: saline): 103 % of control
T/C (endpoint: mean survival time, dose: 400.0 mg/kg/injection, schedule: Q01DX001 (ip), vehicle: saline): 103 % of control

c1csc(CNCCN2CC2)c1
T/C (endpoint: mean survival time, dose: 2.5 mg/kg/injection, schedule: Q01DX009 (ip), vehicle: saline): 89 % of control
T/C (endpoint: mean survival time, dose: 2.5 mg/kg/injection, schedule: Q04DX003 (ip), vehicle: saline): 95 % of control
T/C (endpoint: mean survival time, dose: 5.0 mg/kg/injection, schedule: Q04DX003 (ip), vehicle: saline): 103 % of control
T/C (endpoint: mean survival time, dose: 10.0 mg/kg/injection, schedule: Q04DX003 (ip), vehicle: saline): 100 % of control

CC(C)=CCC/C(C)=C/CC/C(C)=C/CC(=O)OCC=C(C)C
T/C [1]: 89 % of control
T/C [2]: 99 % of control
T/C [14]: 99 % of control

Clc1cc(C(Cl)(Cl)Cl)c(Cl)cc1C(Cl)(Cl)Cl
T/C (endpoint: mean survival time, dose: 25.0 mg/kg/injection, schedule: Q04DX003 (ip), vehicle: Klucel (hydroxypropylcellulose) (HPC)): 93 % of control
T/C (endpoint: mean survival time, dose: 50.0 mg/kg/injection, schedule: Q04DX003 (ip), vehicle: Klucel (hydroxypropylcellulose) (HPC)): 104 % of control
T/C (endpoint: mean survival time, dose: 100.0 mg/kg/injection, schedule: Q01DX009 (ip), vehicle: saline sonified): 120 % of control
T/C [12]: 97 % of control
T/C (endpoint: mean survival time, dose: 200.0 mg/kg/injection, schedule: Q01DX009 (ip), vehicle: saline sonified): 104 % of control
T/C [13]: 94 % of control
T/C (endpoint: mean survival time, dose: 400.0 mg/kg/injection, schedule: Q01DX009 (ip), vehicle: saline sonified): 94 % of control
T/C [15]: 94 % of control

O=C(O)c1ccc[nH]1
T/C [1]: 102 % of control
T/C [2]: 87 % of control
T/C [14]: 98 % of control

CC(O)C(c1ccccc1)S(C)(=O)=O (stereo not given)
T/C [3]: 117 % of control
T/C [12]: 104 % of control
T/C [4]: 96 % of control
T/C [13]: 111 % of control
T/C [5]: 95 % of control
T/C [15]: 94 % of control

Oc1ccccc1/C=N/c1ccccn1
T/C [10]: 106 % of control
T/C [11]: 97 % of control

CCN1CC(C)(C)N(C(=O)c2ccccc2)CC1(C)C
T/C (endpoint: mean survival time, dose: 5.0 mg/kg/injection, schedule: Q01DX001 (ip), vehicle: carboxymethylcellulose (CMC)): 98 % of control
T/C (endpoint: mean survival time, dose: 10.0 mg/kg/injection, schedule: Q01DX001 (ip), vehicle: carboxymethylcellulose (CMC)): 106 % of control
T/C (endpoint: mean survival time, dose: 20.0 mg/kg/injection, schedule: Q01DX001 (ip), vehicle: carboxymethylcellulose (CMC)): 95 % of control
T/C (endpoint: mean survival time, dose: 40.0 mg/kg/injection, schedule: Q01DX001 (ip), vehicle: carboxymethylcellulose (CMC)): 109 % of control
T/C (endpoint: mean survival time, dose: 80.0 mg/kg/injection, schedule: Q01DX001 (ip), vehicle: carboxymethylcellulose (CMC)): 98 % of control

Reference: PubChem BioAssay AID248 (DTP/NCI, 2004)
